From US20250282794A1 (CURADEV PHARMA LTD, priority 2022, published 2025)

Target: recombinant full length HPK-1 enzyme (Homo sapiens (Human), UniProt Q92918)
Experiment: HPK-1 biochemical enzyme assay (ADP-Glo kinase inhibition)
Settings: recombinant full length HPK-1 6.8 nM, 10 μM ATP, 12.5 μM MBP, 30 mins at 25° C.
Method in brief: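 ADP-Glo readout of ADP formed after a 30 min, 25° C. reaction of 6.8 nM full-length HPK-1 with swine myelin basic protein (12.5 μM) and ATP (10 μM) in Tris pH 7.4 buffer with MgCl2, DTT and BSA. Ten compound concentrations tested; percent inhibition set against vehicle (0%) and no-enzyme (100%) controls gave IC50.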

recombinant full length HPK-1 enzyme, sequence (Q92918 whole entry, species assumed): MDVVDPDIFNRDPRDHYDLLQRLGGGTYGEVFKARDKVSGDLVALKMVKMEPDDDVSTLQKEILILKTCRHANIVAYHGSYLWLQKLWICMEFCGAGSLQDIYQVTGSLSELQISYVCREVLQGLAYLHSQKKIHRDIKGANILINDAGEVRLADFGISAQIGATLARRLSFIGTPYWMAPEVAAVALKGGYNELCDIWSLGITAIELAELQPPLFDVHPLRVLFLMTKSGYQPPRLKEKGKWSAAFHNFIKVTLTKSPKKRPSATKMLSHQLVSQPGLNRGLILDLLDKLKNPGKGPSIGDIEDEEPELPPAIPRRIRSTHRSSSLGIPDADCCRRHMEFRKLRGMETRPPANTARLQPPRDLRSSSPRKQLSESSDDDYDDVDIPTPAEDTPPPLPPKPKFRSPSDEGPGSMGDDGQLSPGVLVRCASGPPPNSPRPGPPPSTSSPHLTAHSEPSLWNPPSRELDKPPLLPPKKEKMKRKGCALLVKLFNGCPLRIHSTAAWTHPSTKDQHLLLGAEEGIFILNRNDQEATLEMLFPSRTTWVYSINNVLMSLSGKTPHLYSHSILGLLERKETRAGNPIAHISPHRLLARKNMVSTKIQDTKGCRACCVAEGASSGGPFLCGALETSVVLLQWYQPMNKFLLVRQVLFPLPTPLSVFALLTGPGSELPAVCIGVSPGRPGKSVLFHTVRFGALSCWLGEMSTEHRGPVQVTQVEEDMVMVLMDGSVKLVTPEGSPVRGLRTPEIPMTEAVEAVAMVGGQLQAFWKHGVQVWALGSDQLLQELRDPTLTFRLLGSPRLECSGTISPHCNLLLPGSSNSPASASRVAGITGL

`Cc1c(Nc2cc[nH]c(=O)c2C(=O)Nc2ccc(-c3cnco3)cc2)cnc2c1NCCO2` [Example 146, 4-((8-methyl-2,3-dihydro-1H-pyrido[2,3-b][1,4]oxazin-7-yl)amino)-N-(4-(oxazol-5-yl)phenyl)-2-oxo-1,2-dihydropyridine-3-carboxamide] and `Cc1c(Nc2cc[nH]c(=O)c2C(=O)Nc2ccc(-c3ccccn3)cc2)cnc2c1NCCO2` [Example 130, 4-((8-methyl-2,3-dihydro-1H-pyrido[2,3-b][1,4]oxazin-7-yl)amino)-2-oxo-N-(4-(pyridin-2-yl)phenyl)-1,2-dihydropyridine-3-carboxamide] fall in the same range of IC50: 10 to 100 nM for the first, 10 to 100 nM for the second.

`Cc1c(Nc2cc[nH]c(=O)c2C(=O)Nc2ccc(N3CCN(C(=O)C4CC4)CC3)cc2)cnc2c1NCC(C)O2` (centres unmarked) [Example 372, N-(4-(4-(cyclopropanecarbonyl)piperazin-1-yl)phenyl)-4-((3,8-dimethyl-2,3-dihydro-1H-pyrido[2,3-b][1,4]oxazin-7-yl)amino)-2-oxo-1,2-dihydropyridine-3-carboxamide] and `CCC(=O)N1CCN(c2ccc(NC(=O)c3c(Nc4cnc5c(c4C)NCC(C)O5)cc[nH]c3=O)cc2)CC1` (centres unmarked) [Example 362, 4-((3,8-dimethyl-2,3-dihydro-1H-pyrido[2,3-b][1,4]oxazin-7-yl)amino)-2-oxo-N-(4-(4-propionylpiperazin-1-yl)phenyl)-1,2-dihydropyridine-3-carboxamide] cannot be ordered by IC50: no more than 10 nM for the first, 10 to 100 nM for the second.

`COC1(CN(C)C)CCN(c2ccc(NC(=O)c3c(Nc4cnc5c(c4C)NCCO5)cc[nH]c3=O)cc2)CC1` [Example 392, N-(4-(4-((dimethylamino)methyl)-4-methoxypiperidin-1-yl)phenyl)-4-((8-methyl-2,3-dihydro-1H-pyrido[2,3-b][1,4]oxazin-7-yl)amino)-2-oxo-1,2-dihydropyridine-3-carboxamide] and `Cc1c(Nc2cc[nH]c(=O)c2C(=O)Nc2ccc(N3CCS(=O)(=O)CC3)cc2)cnc2c1NCCO2` [Example 138, N-(4-(1,1-dioxidothiomorpholino)phenyl)-4-((8-methyl-2,3-dihydro-1H-pyrido[2,3-b][1,4]oxazin-7-yl)amino)-2-oxo-1,2-dihydropyridine-3-carboxamide] cannot be ordered by IC50: no more than 10 nM for the first, no more than 10 nM for the second.

First: Cc1c(Nc2cc[nH]c(=O)c2C(=O)Nc2ccc3sc(NC(=O)[C@@H]4C[C@@H]4F)nc3c2)cnc2c1NCCO2 [Example 297, N-(2-((1S,2S)-2-fluorocyclopropane-1-carboxamido)benzo[d]thiazol-5-yl)-4-((8-methyl-2,3-dihydro-1H-pyrido[2,3-b][1,4]oxazin-7-yl)amino)-2-oxo-1,2-dihydropyridine-3-carboxamide]
Second: Cc1c(Nc2cc[nH]c(=O)c2C(=O)Nc2ccc(N3CCN(C)CC3)c(Cl)c2)cnc2c1NCCO2 [Example 261, N-(3-chloro-4-(4-methylpiperazin-1-yl)phenyl)-4-((8-methyl-2,3-dihydro-1H-pyrido[2,3-b][1,4]oxazin-7-yl)amino)-2-oxo-1,2-dihydropyridine-3-carboxamide]
The IC50 of the first is higher: 100 to 1000 nM for the first, no more than 10 nM for the second.

`Cc1c(Nc2cc[nH]c(=O)c2C(=O)Nc2ccc(N3CCN(C(C)(C)C)CC3)cc2)cnc2c1NCCO2` [Example 383, N-(4-(4-(tert-butyl)piperazin-1-yl)phenyl)-4-((8-methyl-2,3-dihydro-1H-pyrido[2,3-b][1,4]oxazin-7-yl)amino)-2-oxo-1,2-dihydropyridine-3-carboxamide] and `CC(=O)N1CCN(c2ccc(NC(=O)c3c(Nc4cnc5c(c4C)NCCO5)cc[nH]c3=O)cc2)CC1` [Example 402, N-(4-(4-acetylpiperazin-1-yl)phenyl)-4-((8-methyl-2,3-dihydro-1H-pyrido[2,3-b][1,4]oxazin-7-yl)amino)-2-oxo-1,2-dihydropyridine-3-carboxamide] cannot be ordered by IC50: no more than 10 nM for the first, 10 to 100 nM for the second.

`Cc1c(Nc2cc[nH]c(=O)c2C(=O)Nc2ccc(N3CCN(C)CC3)c(N)c2)cnc2c1NCC(C)O2` (centres unmarked) [Example 294, N-(3-amino-4-(4-methylpiperazin-1-yl)phenyl)-4-((3,8-dimethyl-2,3-dihydro-1H-pyrido[2,3-b][1,4]oxazin-7-yl)amino)-2-oxo-1,2-dihydropyridine-3-carboxamide] and `COCCN1CCN(c2ccc(NC(=O)c3c(Nc4cnc5c(c4C)NCC(C)O5)cc[nH]c3=O)cc2)CC1` (centres unmarked) [Example 171, 4-((3,8-dimethyl-2,3-dihydro-1H-pyrido[2,3-b][1,4]oxazin-7-yl)amino)-N-(4-(4-(2-methoxyethyl)piperazin-1-yl)phenyl)-2-oxo-1,2-dihydropyridine-3-carboxamide] cannot be ordered by IC50: no more than 10 nM for the first, no more than 10 nM for the second.

`Cc1c(Nc2cc[nH]c(=O)c2C(=O)Nc2ccc(N3CCN(C4COC4)CC3)cc2)cnc2c1NCCO2` [Example 256, 4-((8-methyl-2,3-dihydro-1H-pyrido[2,3-b][1,4]oxazin-7-yl)amino)-N-(4-(4-(oxetan-3-yl)piperazin-1-yl)phenyl)-2-oxo-1,2-dihydropyridine-3-carboxamide] and `Cc1c(Nc2cc[nH]c(=O)c2C(=O)Nc2ccc(N3CCN(C4CCC4)CC3)cc2)cnc2c1NCCO2` [Example 179, N-(4-(4-cyclobutylpiperazin-1-yl)phenyl)-4-((8-methyl-2,3-dihydro-1H-pyrido[2,3-b][1,4]oxazin-7-yl)amino)-2-oxo-1,2-dihydropyridine-3-carboxamide] cannot be ordered by IC50: no more than 10 nM for the first, no more than 10 nM for the second.

`Cc1c(Nc2cc[nH]c(=O)c2C(=O)Nc2ccc(N3CCN(C(=O)N4CCC(F)(F)C4)CC3)cc2)cnc2c1NCCO2` [Example 143, N-(4-(4-(3,3-difluoropyrrolidine-1-carbonyl)piperazin-1-yl)phenyl)-4-((8-methyl-2,3-dihydro-1H-pyrido[2,3-b][1,4]oxazin-7-yl)amino)-2-oxo-1,2-dihydropyridine-3-carboxamide] and `CCC(C)C(=O)N1CCN(c2ccc(NC(=O)c3c(Nc4cnc5c(c4C)NCCO5)cc[nH]c3=O)cc2)CC1` (centres unmarked) [Example 333, 4-((8-methyl-2,3-dihydro-1H-pyrido[2,3-b][1,4]oxazin-7-yl)amino)-N-(4-(4-(2-methylbutanoyl)piperazin-1-yl)phenyl)-2-oxo-1,2-dihydropyridine-3-carboxamide] cannot be ordered by IC50: no more than 10 nM for the first, no more than 10 nM for the second.

`COCC1CN(C)CCN1c1ccc(NC(=O)c2c(Nc3cnc4c(c3C)NCC(C)O4)cc[nH]c2=O)cc1` (centres unmarked) [Example 197, 4-((3,8-Dimethyl-2,3-dihydro-1H-pyrido[2,3-b][1,4]oxazin-7-yl)amino)-N-(4-(2-(methoxymethyl)-4-methylpiperazin-1-yl)phenyl)-2-oxo-1,2-dihydropyridine-3-carboxamide] and `Cc1c(Nc2cc[nH]c(=O)c2C(=O)Nc2ccc(N3CCN4CCCC4C3)cc2)cnc2c1NCC(C)O2` (centres unmarked) [Example 201, 4-((3,8-dimethyl-2,3-dihydro-1H-pyrido[2,3-b][1,4]oxazin-7-yl)amino)-N-(4-(hexahydropyrrolo[1,2-a]pyrazin-2(1H)-yl)phenyl)-2-oxo-1,2-dihydropyridine-3-carboxamide] fall in the same range of IC50: 10 to 100 nM for the first, 10 to 100 nM for the second.

`Cc1c(Nc2cc[nH]c(=O)c2C(=O)Nc2ccc(N3CCN(C)[C@H](C)C3)cc2)cnc2c1NCCO2` [Example 220, (R)-N-(4-(3,4-dimethylpiperazin-1-yl)phenyl)-4-((8-methyl-2,3-dihydro-1H-pyrido[2,3-b][1,4]oxazin-7-yl)amino)-2-oxo-1,2-dihydropyridine-3-carboxamide] and `Cc1c(Nc2cc[nH]c(=O)c2C(=O)Nc2ccc(N3CCN4CCOC[C@@H]4C3)cc2)cnc2c1NCCO2` [Example 327, (S)-N-(4-(hexahydropyrazino[2,1-c][1,4]oxazin-8(1H)-yl)phenyl)-4-((8-methyl-2,3-dihydro-1H-pyrido[2,3-b][1,4]oxazin-7-yl)amino)-2-oxo-1,2-dihydropyridine-3-carboxamide] cannot be ordered by IC50: no more than 10 nM for the first, no more than 10 nM for the second.

`Cc1c(Nc2cc[nH]c(=O)c2C(=O)Nc2ccc(CN3CCN(C)CC3)c(C(F)(F)F)c2)cnc2c1NCCO2` [Example 213, 4-((8-methyl-2,3-dihydro-1H-pyrido[2,3-b][1,4]oxazin-7-yl)amino)-N-(4-((4-methylpiperazin-1-yl)methyl)-3-(trifluoromethyl)phenyl)-2-oxo-1,2-dihydropyridine-3-carboxamide] and `Cc1c(Nc2cc[nH]c(=O)c2C(=O)Nc2ccc(N3CC4CCC(C3)N4C)cc2)cnc2c1NCCO2` [Example 162, 4-((8-methyl-2,3-dihydro-1H-pyrido[2,3-b][1,4]oxazin-7-yl)amino)-N-(4-(8-methyl-3,8-diazabicyclo[3.2.1]octan-3-yl)phenyl)-2-oxo-1,2-dihydropyridine-3-carboxamide] cannot be ordered by IC50: 10 to 100 nM for the first, no more than 10 nM for the second.

`Cc1c(Nc2nc[nH]c(=O)c2C(=O)Nc2ccc(N3CCN(C(C)C)CC3)cc2)cnc2c1NCCO2` [Example 412, N-(4-(4-isopropylpiperazin-1-yl)phenyl)-4-((8-methyl-2,3-dihydro-1H-pyrido[2,3-b][1,4]oxazin-7-yl)amino)-6-oxo-1,6-dihydropyrimidine-5-carboxamide] and `COCc1cc(N2CCN(c3ccc(NC(=O)c4c(Nc5cnc6c(c5C)NCCO6)cc[nH]c4=O)cc3)CC2)ccn1` [Example 364, N-(4-(4-(2-(methoxymethyl)pyridin-4-yl)piperazin-1-yl)phenyl)-4-((8-methyl-2,3-dihydro-1H-pyrido[2,3-b][1,4]oxazin-7-yl)amino)-2-oxo-1,2-dihydropyridine-3-carboxamide] fall in the same range of IC50: 10 to 100 nM for the first, 10 to 100 nM for the second.

`CN1CCN(c2ccc(NC(=O)c3c(Nc4cnc5c(c4)N(C)CCO5)cc[nH]c3=O)cc2)CC1` [Example 118, 4-((1-methyl-2,3-dihydro-1H-pyrido[2,3-b][1,4]oxazin-7-yl)amino)-N-(4-(4-methylpiperazin-1-yl)phenyl)-2-oxo-1,2-dihydropyridine-3-carboxamide] and `Cc1c(Nc2cc[nH]c(=O)c2C(=O)Nc2ccc(N3CCN(C(=O)C4CCCC4)CC3)cc2)cnc2c1NCCO2` [Example 283, N-(4-(4-(cyclopentanecarbonyl)piperazin-1-yl)phenyl)-4-((8-methyl-2,3-dihydro-1H-pyrido[2,3-b][1,4]oxazin-7-yl)amino)-2-oxo-1,2-dihydropyridine-3-carboxamide] cannot be ordered by IC50: 10 to 100 nM for the first, no more than 10 nM for the second.
